Measured values: ChEMBL document CHEMBL1129522, “Inhibitors of acyl-CoA:cholesterol O-acyltransferase. 17. Structure-activity relationships of several series of compounds derived from N-chlorosulfonyl isocyanate” (J Med Chem, 1996)
pIC50: −log10 of the molar value. Several values for one entry are separate records, joined by “and”; a condition that tells them apart may be missing. Equal entries are not always repeated.

Assays:
[1] = target: T1, Sterol O-acyltransferase 1 (Rattus norvegicus) (UniProt O70536); experiment: Chronic in vivo activity was measured by the total cholesterol concentration levels in cholesterol fed rats; format: functional, organism-based
T1 sequence (whole entry): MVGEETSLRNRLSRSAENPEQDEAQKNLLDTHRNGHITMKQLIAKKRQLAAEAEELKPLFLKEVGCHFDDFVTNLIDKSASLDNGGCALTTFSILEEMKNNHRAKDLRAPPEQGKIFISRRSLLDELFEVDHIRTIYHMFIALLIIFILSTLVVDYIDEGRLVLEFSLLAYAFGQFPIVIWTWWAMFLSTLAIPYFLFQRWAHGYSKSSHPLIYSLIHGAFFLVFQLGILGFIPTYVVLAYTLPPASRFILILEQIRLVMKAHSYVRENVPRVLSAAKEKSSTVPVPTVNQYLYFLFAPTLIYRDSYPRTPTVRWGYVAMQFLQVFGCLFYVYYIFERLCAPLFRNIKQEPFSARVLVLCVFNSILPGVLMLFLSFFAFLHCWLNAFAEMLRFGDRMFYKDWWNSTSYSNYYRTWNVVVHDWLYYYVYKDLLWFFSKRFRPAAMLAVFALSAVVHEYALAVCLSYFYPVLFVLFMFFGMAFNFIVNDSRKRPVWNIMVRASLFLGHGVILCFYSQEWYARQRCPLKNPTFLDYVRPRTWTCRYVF

[2] = target: T1, Sterol O-acyltransferase 1 (Rattus norvegicus); experiment: Acute in vivo activity was measured by the total plasma cholesterol concentration levels(TC) at dose 50 mg/kg; format: functional, organism-based; set-up: dose 50 mg/kg
[3] = target: T1, Sterol O-acyltransferase 1 (Rattus norvegicus); experiment: Acute in vivo activity was measured by the total plasma cholesterol concentration levels(TC) at dose 3 mg/kg; format: functional, organism-based; set-up: dose 3 mg/kg
[4] = target: T2, Sterol O-acyltransferase 1 (Rattus norvegicus, UniProt O70536); experiment: In vitro inhibitory activity against acyl coenzyme A:cholesterol acyltransferase 1 in microsomes of rat liver
T2 sequence (O70536 whole entry): T1 sequence (whole entry)

[5] = target: T1, Sterol O-acyltransferase 1 (Rattus norvegicus); experiment: Chronic in vivo activity was measured by the concentration of high density lipoproteins (HDL) in cholesterol fed rats; format: functional, organism-based
[6] = target: T1, Sterol O-acyltransferase 1 (Rattus norvegicus); experiment: Chronic in vivo activity was measured by the total cholesterol concentration levels in Cholesterol-Fed Rats; format: functional, organism-based
Rattus norvegicus = experiment: Acute in vivo activity measured by total plasma cholesterol concentration levels (TC) at 30 mg/kg dose; format: functional

| SMILES | Delta TC [1] | Delta TC [2] | Delta TC [3] | pIC50 [4] | Delta HDL [5] | Delta TC [6] | Delta TC (Rattus norvegicus) |
| --- | --- | --- | --- | --- | --- | --- | --- |
| CCCCN(CCCC)S(=O)(=O)NC(=O)Nc1c(C(C)C)cccc1C(C)C | -52% and -40% | -66% | -64% and -52% |  |  |  |  |
| CC(C)c1cccc(C(C)C)c1OC(=O)NS(=O)(=O)Nc1nc2ccccc2[nH]1 |  | 8% |  | 4.28 |  |  |  |
| Cc1cc(C(C)(C)C)c(OC(=O)NS(=O)(=O)NCC(c2ccccc2)c2ccccc2)c(C(C)(C)C)c1 | -51% | -54% |  | 4.61 | 144% |  |  |
| CC(C)c1cccc(C(C)C)c1NC(=O)NS(=O)(=O)N(C(C)C)C(C)C | -38% | -59% |  | 6.62 | 83% |  |  |
| CC(C)(C)c1cccc(C(C)(C)C)c1OC(=O)NS(=O)(=O)Nc1ccccc1 |  | -26% |  | 4.72 |  |  |  |
| CC(C)c1cccc(C(C)C)c1NS(=O)(=O)NC(=O)Oc1c(C(C)(C)C)cccc1C(C)(C)C |  | -57% |  | 4.77 | 200% | -28% |  |
| CC(C)c1cccc(C(C)C)c1OC(=O)NS(=O)(=O)Nc1ccccc1 | -33% | -55% |  | 4.42 | 240% |  |  |
| CC(C)(C)c1cccc(C(C)(C)C)c1OC(=O)NS(=O)(=O)NCC(c1ccccc1)c1ccccc1 |  | -32% |  | 4.66 |  |  |  |
| CC(C)c1cccc(C(C)C)c1OC(=O)NS(=O)(=O)NC(c1ccccc1)c1ccccc1 |  | 46% |  | 4.97 |  |  |  |
| Cc1cc(C(C)(C)C)c(OC(=O)NS(=O)(=O)Nc2c(C(C)C)cccc2C(C)C)c(C(C)(C)C)c1 | -38% | -56% |  | 4.87 | 156% |  |  |
| Cc1cc(C(C)(C)C)c(OC(=O)NS(=O)(=O)NC(c2ccccc2)c2ccccc2)c(C(C)(C)C)c1 | -25% | -42% |  | 4.94 | 100% |  |  |
| CC(C)c1cccc(C(C)C)c1NS(=O)(=O)NC(=O)Oc1c(C(C)C)cccc1C(C)C | -9% | -65% |  | 4.59 | 388% |  |  |
| CC(C)(C)c1cccc(C(C)(C)C)c1OC(=O)NS(=O)(=O)NC(c1ccccc1)c1ccccc1 |  | -35% |  | 4.94 | 50% | -46% |  |
| CC(C)(C)c1cccc(C(C)(C)C)c1OC(=O)NS(=O)(=O)N(Cc1ccccc1)Cc1ccccc1 |  | -3% |  | 4.96 |  |  |  |
| CC(C)c1cccc(C(C)C)c1NC(=O)NS(=O)(=O)NCC(c1ccccc1)c1ccccc1 |  | -20% |  | 5.23 |  |  |  |
| CC(C)c1cccc(C(C)C)c1OC(=O)NS(=O)(=O)NCC(c1ccccc1)c1ccccc1 |  | -29% |  | 4.31 |  |  |  |
| CC(C)c1cccc(C(C)C)c1NC(=O)NS(=O)(=O)N(Cc1ccccc1)C(C)C | -41% | -60% |  | 6.40 | 150% |  |  |
| CC(C)c1cccc(C(C)C)c1NC(=O)NS(=O)(=O)NC1c2ccccc2-c2ccccc21 |  | -4% |  | 4.60 |  |  |  |
| Cc1cc(C(C)(C)C)c(OC(=O)NS(=O)(=O)Nc2ccccc2)c(C(C)(C)C)c1 |  | -33% |  | 4.63 |  |  |  |
| CC(C)c1cccc(C(C)C)c1NC(=O)NS(=O)(=O)NC(c1ccccc1)c1ccccc1 |  | -14% |  | 5.39 |  |  |  |
| COc1cccc(OC)c1OS(=O)(=O)NC(=O)Oc1c(C(C)C)cccc1C(C)C | -62% |  | -63% | < 4.30 | 208% |  | -70% |
| CC(C)c1cccc(C(C)C)c1NC(=O)NS(=O)(=O)Nc1c(C(C)C)cccc1C(C)C | -37% | -54% |  | 4.96 | 80% |  |  |
